Laboratory results from patent US12252701B2, “Chimeric antigen receptor T cell therapy” (KITE PHARMA, INC., priority 2020, dated 2025).
Like-named read-outs stand apart in the source and are kept apart here.

What was measured:
CAR-T cells = assay: CAR-T cell expansion assay (KIP-1 or CD3/CD28 stimulation)
Method: 96-well plates were coated with 100 μl of KIP-1 antibody per well at 1 μg/ml in PBS and plates were incubated at 4° C. overnight. CAR-T cells were thawed and were rested in ImmunoCult expansion medium and incubated overnight at 37° C. Cells were then counted and resuspended at 2 million cells/ml and seed at 200,000 cells per well in 100 μl of expansion medium with 10 ng/ml recombinant IL2. For groups treated with KIP-1, 100 μl of expansion medium were added with 2× final drug dilutions. For CD3/CD28 treated groups, 100 μl of expansion media were added with 2× final drug dilutions containing 25 μl/ml of CD3/CD28 T cell activator from StemCell Technologies. Cells were then incubated at 37° C. After 4 days, cells were counted and diluted 1 to 8-fold in expansion media and then transferred to a 24-well plate. Cell counts were repeated at day 7 and transferred to T25 flasks. On day 11, all cells were harvested and counted.

[1] = tested on: phospho-STAT-1, -3 and -5 in CD4, CD8 T cells and monocytes (CAR T product, PBMCs); assay: Intracellular phospho-STAT-1, -3, -5 by flow cytometry in immune cell subsets of CAR T product and PBMCs; assay type: cell-based, human
Method: Further experiments were performed to look at impacts of JAK inhibitors on STAT phosphorylation in various immune cell subsets.

[2] = tested on: NALM6.GFP.LUC.CD19 target cells; assay: Serial killing assay; assay type: cell-based, human
Method: CD19 CAR-T cells were thawed in RPMI media supplemented with HEPES, Penicillin/Streptomycin/L-Glutamine and 10% FBS and rested overnight. The following day, drugs were serially diluted and prepared in 96-well plates. Rested T cells were counted and normalized so that 25,000 or 8,333 T cells were plated with 25,000 NALM6.GFP.LUC.CD19 target cells (1:1 or 1:3 Effector:Target ratio) in the prepared 96-well plates. At 16 hour post-incubation and every 3-4 days, T cell killing of targets was measured via luciferase detection. D-luciferin substrate was added to the co-culture wells at a final concentration of 0.14 mg/mL and plates were incubated at 37° C. in the dark for 10 minutes. Luminescent signal was read immediately after in a VarioSkan™ LUX microplate reader. T cell-mediated cytotoxicity was calculated as follows: % Cytotoxicity=[1−luciferase signal of (sample of interest/target alone control)]*100. Afterwards, co-cultures were stained with LIVE/DEAD and antibodies against CD4, CD8 and KIP-1 and then washed. Cells were then analyzed and quantified via the Attune NxT flow cytometer. T cells were then repeatedly stimulated with fresh 25,000 target cells, and this process was repeated every 3-4 days.

[3] = tested on: NALM6.GFP.LUC.CD19 target cells; assay: Serial killing assay of CAR-T, percent cytotoxicity by luciferase detection; conditions: repeat stimulation rounds
Method: The percent cytotoxicity to NALM6.GFP.LUC.CD19 target cells was measured by luciferase detection at each round.
In one embodiment, a serial killing assay is a combination of cell killing and how long it takes for CAR T cells to get exhausted under repeated stimulation. In one embodiment, a serial killing assay is a surrogate measure for CAR T cell persistence in vivo.

[4] = cited from earlier work
CD19 CAR T cells = assay: CAR T cell cytokine production (Luminex) under CD19 K562, KIP-1 or CD2/3/28 stimulation
[5] = Clinical pharmacokinetic data converted to in vitro concentrations; conditions: human, in vivo
Text: Given the different potencies of the JAK inhibitors and different pharmacokinetic properties for each drug, it was sought to test each drug at a relevant range of physiological concentrations based on clinical dosing and reported pharmacokinetic data from repeat dose studies. Reported Cmax values in patient sera were converted to in vitro concentrations and adjusted for reported plasma protein binding.

[6] = E:T ratio 1:3, all doses tested

SMILES: Nc1nc2cccc(-c3ccc(CN4CCS(=O)(=O)CC4)cc3)n2n1 [GS-829845]
- % viability (CAR-T cells; CD3/CD28, dose 1000 nM, day 0): 75%
- % viability (CAR-T cells; CD3/CD28, dose 1000 nM, day 4): 55.6%
- % viability (CAR-T cells; CD3/CD28, dose 1000 nM, day 8): 76.2%
- % viability (CAR-T cells; CD3/CD28, dose 1000 nM, day 12): 88.9%
- % viability (CAR-T cells; CD3/CD28, dose 5000 nM, day 0): 75%
- % viability (CAR-T cells; CD3/CD28, dose 5000 nM, day 4): 56.5%
- % viability (CAR-T cells; CD3/CD28, dose 5000 nM, day 8): 75.6%
- % viability (CAR-T cells; CD3/CD28, dose 5000 nM, day 12): 88.8%
- % viability (CAR-T cells; KIP-1, dose 1000 nM, day 0): 75%
- % viability (CAR-T cells; KIP-1, dose 1000 nM, day 4): 48.4%
- % viability (CAR-T cells; KIP-1, dose 1000 nM, day 8): 63%
- % viability (CAR-T cells; KIP-1, dose 1000 nM, day 12): 82.5%
- % viability (CAR-T cells; KIP-1, dose 5000 nM, day 0): 75%
- % viability (CAR-T cells; KIP-1, dose 5000 nM, day 4): 60%
- % viability (CAR-T cells; KIP-1, dose 5000 nM, day 8): 87%
- % viability (CAR-T cells; KIP-1, dose 5000 nM, day 12): 81.1%
- effect on T cell expansion (CAR-T cells; at the doses tested (Table 40)): little to no effect
- Primary Cell IL-6 pSTAT1 signaling (% inhibition) ([1]; CD4 CART cells): 18%
- Primary Cell IL-6 pSTAT3 signaling (% inhibition) ([1]; CD4 CART cells): 6%
- Primary Cell IL-6 pSTAT5 signaling (% inhibition) ([1]; CD4 CART cells): 29%
- Primary Cell IL-6 pSTAT1 signaling (% inhibition) ([1]; CD8 CART cells): 11%
- Primary Cell IL-6 pSTAT3 signaling (% inhibition) ([1]; CD8 CART cells): 2%
- Primary Cell IL-6 pSTAT5 signaling (% inhibition) ([1]; CD8 CART cells): 17%
- effect on phosphorylated-STAT-1, -STAT-3 and -STAT5 levels ([1]; IL-6 stimulation): only a fraction of the filgotinib suppression levels
- Primary cell GM-CSF-pSTAT5, inhibition ([1]; Monocytes within bulk PBMCs): 3%
- Primary Cell IL-6 pSTAT1 signaling (% inhibition) ([1]; PBMC CD4 T cells): 25%
- Primary Cell IL-6 pSTAT3 signaling (% inhibition) ([1]; PBMC CD4 T cells): 15%
- Primary Cell IL-6 pSTAT5 signaling (% inhibition) ([1]; PBMC CD4 T cells): 36%
- Primary Cell IL-6 pSTAT1 signaling (% inhibition) ([1]; PBMC CD8 T cells): 10%
- Primary Cell IL-6 pSTAT3 signaling (% inhibition) ([1]; PBMC CD8 T cells): 11%
- Primary Cell IL-6 pSTAT5 signaling (% inhibition) ([1]; PBMC CD8 T cells): 24%
- Primary Cell IL-6 pSTAT1 signaling (% inhibition) ([1]; PBMC Monocytes): 24%
- Primary Cell IL-6 pSTAT3 signaling (% inhibition) ([1]; PBMC Monocytes): 17%
- Primary Cell IL-6 pSTAT5 signaling (% inhibition) ([1]; PBMC Monocytes): 21%
- Primary cell GM-CSF-pSTAT5, inhibition ([1]; T cells within bulk PBMCs): 16%
- T-cell counts ([2]; E:T ratio 1:1): increased T-cell counts in a dose-dependent manner
- serial killing ([2]; E:T ratio 1:1): enhanced serial killing
- T-cell counts [2, 6]: no negative impacts were observed
- serial killing [2, 6]: no negative impacts
- impact on CAR-T serial killing (percent cytotoxicity) ([3]; E:T of 1:1, dose titration): enhance serial killing
- impact on CAR-T serial killing (percent cytotoxicity) ([3]; E:T of 1:3, dose titration): no impact
- Cmax ([4]; clinical dosing, patient sera, repeat dose studies): 3540 ng/mL
- Protein binding ([4]; plasma protein binding, reported): ~58%
- suppression of cytokine production from CAR T cells (breadth and magnitude) (CD19 CAR T cells): weaker in activity compared to filgotinib and other JAK inhibitors
- Suppression of cytokine production, IL-6 (IC50) (CD19 CAR T cells; CD3/CD28 stimulation, 72 h): Suppress
- Suppression of cytokine production, MCP-1 (IC50) (CD19 CAR T cells; CD3/CD28 stimulation, 72 h): Suppress
- Suppression of cytokine production, TNFa (IC50) (CD19 CAR T cells; CD3/CD28 stimulation, 72 h): Suppress
- Suppression of cytokine production, IL-6 (IC50) (CD19 CAR T cells; K562-CD19 stimulation, 72 h): Suppress
- Suppression of cytokine production, MCP-1 (IC50) (CD19 CAR T cells; K562-CD19 stimulation, 72 h): Suppress
- Suppression of cytokine production, MIG (IC50) (CD19 CAR T cells; K562-CD19 stimulation, 72 h): Suppress
- Suppression of cytokine production, TNFa (IC50) (CD19 CAR T cells; K562-CD19 stimulation, 72 h): Suppress
- Suppression of cytokine production, IL-6 (IC50) (CD19 CAR T cells; KIP-1 stimulation, 72 h): Suppress
- Suppression of cytokine production, MCP-1 (IC50) (CD19 CAR T cells; KIP-1 stimulation, 72 h): Suppress
- Suppression of cytokine production, TNFa (IC50) (CD19 CAR T cells; KIP-1 stimulation, 72 h): Suppress
- IC50 (CD19 CAR T cells; read-out: Suppression of cytokine production, GMCSF (IC50), CD3/CD28 stimulation, 72 h): > 10 µM
- IC50 (CD19 CAR T cells; read-out: Suppression of cytokine production, GMCSF (IC50), K562-CD19 stimulation, 72 h): > 10 µM
- IC50 (CD19 CAR T cells; read-out: Suppression of cytokine production, GMCSF (IC50), KIP-1 stimulation, 72 h): > 10 µM
- IC50 (CD19 CAR T cells; read-out: Suppression of cytokine production, GzB (IC50), CD3/CD28 stimulation, 72 h): > 10 µM
- IC50 (CD19 CAR T cells; read-out: Suppression of cytokine production, GzB (IC50), K562-CD19 stimulation, 72 h): > 10 µM
- IC50 (CD19 CAR T cells; read-out: Suppression of cytokine production, GzB (IC50), KIP-1 stimulation, 72 h): > 10 µM
- IC50 (CD19 CAR T cells; read-out: Suppression of cytokine production, IFNg (IC50), CD3/CD28 stimulation, 72 h): > 10 µM
- IC50 (CD19 CAR T cells; read-out: Suppression of cytokine production, IFNg (IC50), K562-CD19 stimulation, 72 h): > 10 µM
- IC50 (CD19 CAR T cells; read-out: Suppression of cytokine production, IFNg (IC50), KIP-1 stimulation, 72 h): > 10 µM
- IC50 (CD19 CAR T cells; read-out: Suppression of cytokine production, IL-2Ra (IC50), CD3/CD28 stimulation, 72 h): 4.74 µM
- IC50 (CD19 CAR T cells; read-out: Suppression of cytokine production, IL-2Ra (IC50), K562-CD19 stimulation, 72 h): > 10 µM
- IC50 (CD19 CAR T cells; read-out: Suppression of cytokine production, IL-2Ra (IC50), KIP-1 stimulation, 72 h): > 10 µM
- IC50 (CD19 CAR T cells; read-out: Suppression of cytokine production, IL-8 (IC50), CD3/CD28 stimulation, 72 h): > 10 µM
- IC50 (CD19 CAR T cells; read-out: Suppression of cytokine production, IL-8 (IC50), K562-CD19 stimulation, 72 h): > 10 µM
- IC50 (CD19 CAR T cells; read-out: Suppression of cytokine production, IL-8 (IC50), KIP-1 stimulation, 72 h): > 10 µM
- IC50 (CD19 CAR T cells; read-out: Suppression of cytokine production, IL-10 (IC50), K562-CD19 stimulation, 72 h): 4.01 µM
- IC50 (CD19 CAR T cells; read-out: Suppression of cytokine production, IL-10 (IC50), KIP-1 stimulation, 72 h): 3.93 µM
- IC50 (CD19 CAR T cells; read-out: Suppression of cytokine production, MIG (IC50), CD3/CD28 stimulation, 72 h): > 10 µM
- IC50 (CD19 CAR T cells; read-out: Suppression of cytokine production, MIG (IC50), KIP-1 stimulation, 72 h): > 10 µM
- IC50 (CD19 CAR T cells; read-out: Suppression of cytokine production, MIP-1a (IC50), CD3/CD28 stimulation, 72 h): > 10 µM
- IC50 (CD19 CAR T cells; read-out: Suppression of cytokine production, MIP-1a (IC50), K562-CD19 stimulation, 72 h): > 10 µM
- IC50 (CD19 CAR T cells; read-out: Suppression of cytokine production, MIP-1a (IC50), KIP-1 stimulation, 72 h): > 10 µM
- IC50 (CD19 CAR T cells; read-out: Suppression of cytokine production, MIP-1b (IC50), CD3/CD28 stimulation, 72 h): > 10 µM
- IC50 (CD19 CAR T cells; read-out: Suppression of cytokine production, MIP-1b (IC50), K562-CD19 stimulation, 72 h): > 10 µM
- IC50 (CD19 CAR T cells; read-out: Suppression of cytokine production, MIP-1b (IC50), KIP-1 stimulation, 72 h): > 10 µM
- IC50 (CD19 CAR T cells; read-out: Suppression of cytokine production, Perforin (IC50), CD3/CD28 stimulation, 72 h): > 10 µM
- IC50 (CD19 CAR T cells; read-out: Suppression of cytokine production, Perforin (IC50), K562-CD19 stimulation, 72 h): > 10 µM
- IC50 (CD19 CAR T cells; read-out: Suppression of cytokine production, Perforin (IC50), KIP-1 stimulation, 72 h): > 10 µM
- clinically relevant dose level (in vitro concentration) [5]: ~4 µM
